Source: patent publication US8283373B2, “Inhibitors of cytosolic phospholipase A2” (Pfizer Inc., priority 2005, dated 2012)

What was measured:
[1] = tested on: primary dopaminergic neurons; assay: MPP+ exposure in dopaminergic neurons; format: cell-based, rat; conditions: 10 μM MPP+ 60 minutes, control 100, MPP+ alone 56.6
Description: Primary dopaminergic neurons were isolated from E15 rat embryos as described in Pong K., et al., (1997) J. Neurochem. 69 986-994. Briefly, the ventral mesencephalon was isolated and tissue was pooled in ice-cold phosphate buffer saline (PBS) without Ca^2+ and Mg^2+. The tissue was transferred to an enzymatic dissociation media containing 20 IU/ml papain in Earle's balanced salt solution (Worthington Biochemical, Freehold, N.J.) and incubated for 30 minutes at 37° C. After enzymatic dissociation, the papain solution was aspirated and the tissue mechanically triturated with a fire-polished Pasteur pipette in complete media [Neurobasal Medium with B-27 supplement (Gibco, Grand Island, N.Y.), penicillin/streptomycin, aphidicolin, glutamate] containing 2,000 IU/ml DNase and 10 mg/ml ovomucoid protease inhibitor. Single-cell suspensions in complete media were plated on pre-coated poly-L-ornithine/laminin 24-well plates (Becton-Dickinson, Bedford, Mass.) at a density of 5.0×10^5 cells/well. Cells were maintained for one week prior to experimentation.
Cultures were exposed to 10 μM MPP^+ for 60 minutes. After the exposure, fresh media was exchanged and fresh compound was added. Dopaminergic neuron viability was determined 24 hours later by measuring ^3H-dopamine uptake as described in Pong et al., 1997, supra.

[2] = tested on: experimental autoimmune encephalomyelitis (EAE); assay: Experimental autoimmune encephalomyelitis (EAE) model of multiple sclerosis; format: in vivo, mouse
Description: Six groups of B6 mice were immunized with MOG/CFA and injected with pertussis toxin to induce experimental autoimmune encephalomyelitis (EAE), an animal model of Multiple sclerosis. Three groups of mice were treated with vehicle, 4-{3-[1-benzhydryl-5-chloro-2-(2-{[(2,6-dimethylbenzyl)sulfonyl]amino}ethyl)-1H-indol-3-yl]propyl}benzoic acid (Compound A), or 4-{2-[1-benzhydryl-5-chloro-2-(2-{[(3,4-dichlorobenzyl)sulfonyl]amino}-ethyl)-1H-indol-3-yl]ethoxy}benzoic acid (Compound B) from the day of Immunization (orally, 100 mg/kg, twice/day). Another three groups of mice were treated with vehicle, Compound A or Compound B starting on the day of EAE onset (day 15) (orally, 100 mg/kg, twice/day). […] The results are shown in the Table below, wherein mean clinical score is a mean of clinical evaluation of each animal for that particular day.
Animals are Scored as Follows:
• 0—no clinical signs of EAE (no paralysis) • 1—paralysis of tail • 2—paralysis of tail and partial hind leg paralysis • 3—paralysis of tail and complete hind leg paralysis • 4—paralysis of tail, complete hind leg paralysis and a partial front leg paralysis • 5—moribund animal (all four limbs paralyzed, lack of responsiveness, these mice were immediately euthanized).
In addition, the compounds of Examples 14 and 25 were also found to be efficacious in the mouse experimental autoimmune encephalomyelitis (EAE) model of multiple sclerosis. As shown by the data in the Table below, these compounds led to a delayed onset of disease and reduced severity of disease when administered orally in doses as low as 2.5 mg/kg.

CFA-induced hyperalgesia = CFA-induced hyperalgesia model; format: in vivo, rat; conditions: 6 hours after CFA
Source text: The sensitivity of peripheral sensory neurons can be enhanced such that they respond to both noxious and non-noxious stimuli resulting in chronic pain (See Julius, D. et al., Nature. 2001; 413:203; Woolf, C. J., et al., Science. […]; 288:1765). Prostaglandins and leukotrienes at the site of inflammation and tissue damage are partially responsible for this potentiation of the pain response. Prostaglandins promote the phosphorylation of ion channels, increasing the excitability and lowering the pain threshold of sensory neurons. Analogously, leukotriene B4 and related arachidonate metabolites of 12-LO bind to and activate the capsaicin receptor (or VR1) ion channel on neurons that respond to heat and low pH (See Piomelli D., TRENDS in Pharmacological Sciences, January 2001; 22(1):17-29). The effect of the compound of Example 10 was measured in the CFA-induced hyperalgesia model, and lipid mediator production was measured at peripheral and central sites.
The animals were dosed with vehicle, the compound of Example 10, naproxen or celecoxib, and then CFA was immediately injected into the hind footpad. To assess hyperalgesia, pressure was applied to the left hind paw at a slow and constant rate using a digital force gauge. Measurements were taken at 0 and 6 hours. The application of the force was stopped when the animal vocalized, or struggled. Readings were taken prior to dosing and CFA injection, and repeated six hours after the CFA injection. Two independent experiments were run and the data were analyzed separately.
The paws were collected at the end of each experiment (6 hours) and the levels of PGE2, LTB4 and TXB2 were measured in the exudates.

SMILES: O=C(O)c1ccc(OCCc2c(CCNS(=O)(=O)Cc3ccc(Cl)c(Cl)c3)n(C(c3ccccc3)c3ccccc3)c3ccc(Cl)cc23)cc1 [Compound B, 4-{2-[1-benzhydryl-5-chloro-2-(2-{[(3,4-dichlorobenzyl)sulfonyl]amino}-ethyl)-1H-indol-3-yl]ethoxy}benzoic acid]
- dopaminergic neuron viability (3H-dopamine uptake), Avg. ([1]; 0.3 μM): 74
- dopaminergic neuron viability (3H-dopamine uptake), Avg. ([1]; 1 μM): 71.6
- dopaminergic neuron viability (3H-dopamine uptake), Avg. ([1]; 3 μM): 78.6
- dopaminergic neuron viability (3H-dopamine uptake), Avg. ([1]; 10 μM): 83.2
- mean clinical score ([2]; 100 mg/kg orally twice/day from EAE onset (day 15), day 11 after immunization): 0
- mean clinical score ([2]; 100 mg/kg orally twice/day from EAE onset (day 15), day 12 after immunization): 0
- mean clinical score ([2]; 100 mg/kg orally twice/day from EAE onset (day 15), day 13 after immunization): 0
- mean clinical score ([2]; 100 mg/kg orally twice/day from EAE onset (day 15), day 14 after immunization): 0
- mean clinical score ([2]; 100 mg/kg orally twice/day from EAE onset (day 15), day 15 after immunization): 0.10
- mean clinical score ([2]; 100 mg/kg orally twice/day from EAE onset (day 15), day 16 after immunization): 0.45
- mean clinical score ([2]; 100 mg/kg orally twice/day from EAE onset (day 15), day 17 after immunization): 0.80
- mean clinical score ([2]; 100 mg/kg orally twice/day from EAE onset (day 15), day 18 after immunization): 1.05
- mean clinical score ([2]; 100 mg/kg orally twice/day from EAE onset (day 15), day 19 after immunization): 1.10
- mean clinical score ([2]; 100 mg/kg orally twice/day from EAE onset (day 15), day 20 after immunization): 1.00
- mean clinical score ([2]; 100 mg/kg orally twice/day from EAE onset (day 15), day 21 after immunization): 1.20
- mean clinical score ([2]; 100 mg/kg orally twice/day from EAE onset (day 15), day 22 after immunization): 1.10
- mean clinical score ([2]; 100 mg/kg orally twice/day from EAE onset (day 15), day 23 after immunization): 1.40
- mean clinical score ([2]; 100 mg/kg orally twice/day from EAE onset (day 15), day 24 after immunization): 1.35
- mean clinical score ([2]; 100 mg/kg orally twice/day from EAE onset (day 15), day 25 after immunization): 1.25
- mean clinical score ([2]; 100 mg/kg orally twice/day from EAE onset (day 15), day 26 after immunization): 1.40
- mean clinical score ([2]; 100 mg/kg orally twice/day from EAE onset (day 15), day 27 after immunization): 1.55
- mean clinical score ([2]; 100 mg/kg orally twice/day from day of immunization (Day 1), day 11 after immunization): 0
- mean clinical score ([2]; 100 mg/kg orally twice/day from day of immunization (Day 1), day 12 after immunization): 0
- mean clinical score ([2]; 100 mg/kg orally twice/day from day of immunization (Day 1), day 13 after immunization): 0
- mean clinical score ([2]; 100 mg/kg orally twice/day from day of immunization (Day 1), day 14 after immunization): 0
- mean clinical score ([2]; 100 mg/kg orally twice/day from day of immunization (Day 1), day 15 after immunization): 0
- mean clinical score ([2]; 100 mg/kg orally twice/day from day of immunization (Day 1), day 16 after immunization): 0
- mean clinical score ([2]; 100 mg/kg orally twice/day from day of immunization (Day 1), day 17 after immunization): 0.06
- mean clinical score ([2]; 100 mg/kg orally twice/day from day of immunization (Day 1), day 18 after immunization): 0.06
- mean clinical score ([2]; 100 mg/kg orally twice/day from day of immunization (Day 1), day 19 after immunization): 0.11
- mean clinical score ([2]; 100 mg/kg orally twice/day from day of immunization (Day 1), day 20 after immunization): 0.39
- mean clinical score ([2]; 100 mg/kg orally twice/day from day of immunization (Day 1), day 21 after immunization): 0.44
- mean clinical score ([2]; 100 mg/kg orally twice/day from day of immunization (Day 1), day 22 after immunization): 0.50
- mean clinical score ([2]; 100 mg/kg orally twice/day from day of immunization (Day 1), day 23 after immunization): 0.67
- mean clinical score ([2]; 100 mg/kg orally twice/day from day of immunization (Day 1), day 24 after immunization): 0.56
- mean clinical score ([2]; 100 mg/kg orally twice/day from day of immunization (Day 1), day 25 after immunization): 0.56
- mean clinical score ([2]; 100 mg/kg orally twice/day from day of immunization (Day 1), day 26 after immunization): 0.56
- mean clinical score ([2]; 100 mg/kg orally twice/day from day of immunization (Day 1), day 27 after immunization): 0.72
- prevention of EAE / reduction of clinical severity ([2]; administered from the time of immunization, or in mice with or close to EAE): can prevent EAE

SMILES: COc1ccc2cc([C@H](C)C(=O)O)ccc2c1 [naproxen, reference compound]
- LTB4 levels in paw exudates (CFA-induced hyperalgesia): increased
- TXB2 levels in paw exudates (CFA-induced hyperalgesia): greater than the inhibition with celecoxib
- PGE2 levels in paw exudates (CFA-induced hyperalgesia; Example 10 at 25 mg/kg): significantly inhibited
